Laboratory results from the NIST ThermoML archive (doi:10.1016/j.jct.2016.07.012).
Values joined by “and” are separate entries in the source; they are usually repeats but may differ in a detail not shown here. Identical values can stand only once.

Experiment: molar heat capacity at constant pressure
Settings: 101.33 kPa, Metastable crystal, Small (less than 1 g) adiabatic calorimetry

CCCCn1cc[n+](C)c1.F[P-](F)(F)(F)(F)F [1-butyl-3-methylimidazolium hexafluorophosphate]
Settings	molar heat capacity at constant pressure
5.14 K	2.42 J/K/mol
5.39 K	2.76 J/K/mol and 1.64 J/K/mol
5.67 K	1.92 J/K/mol
5.74 K	3.28 J/K/mol
6.01 K	2.31 J/K/mol
6.1 K	3.85 J/K/mol
6.43 K	2.83 J/K/mol
6.54 K	4.59 J/K/mol
6.93 K	3.51 J/K/mol
7.06 K	5.54 J/K/mol
7.43 K	4.3 J/K/mol
7.59 K	6.57 J/K/mol
7.94 K	5.16 J/K/mol
8.12 K	7.67 J/K/mol
8.46 K	6.12 J/K/mol
8.66 K	8.84 J/K/mol
8.98 K	7.15 J/K/mol
9.2 K	10.06 J/K/mol
9.51 K	8.25 J/K/mol
9.75 K	11.33 J/K/mol
10.05 K	9.41 J/K/mol
10.36 K	12.83 J/K/mol
10.66 K	10.82 J/K/mol
11.05 K	14.53 J/K/mol
11.34 K	12.43 J/K/mol
11.75 K	16.3 J/K/mol
12.02 K	14.11 J/K/mol
12.45 K	18.11 J/K/mol
12.71 K	15.86 J/K/mol
13.16 K	19.96 J/K/mol
13.41 K	17.66 J/K/mol
13.87 K	21.84 J/K/mol
14.11 K	19.5 J/K/mol
14.59 K	23.69 J/K/mol
14.82 K	21.33 J/K/mol
15.31 K	25.67 J/K/mol
15.64 K	23.71 J/K/mol
16.14 K	28.07 J/K/mol
16.58 K	26.38 J/K/mol
17.09 K	30.62 J/K/mol
17.53 K	28.96 J/K/mol
18.04 K	33.1 J/K/mol
18.47 K	31.53 J/K/mol
18.99 K	35.56 J/K/mol
19.42 K	34.1 J/K/mol
19.94 K	37.99 J/K/mol
20.38 K	36.68 J/K/mol
21.2 K	41.25 J/K/mol
21.63 K	40.09 J/K/mol
22.78 K	45.26 J/K/mol
23.2 K	44.28 J/K/mol
24.36 K	49.25 J/K/mol
24.78 K	48.5 J/K/mol
25.94 K	53.1 J/K/mol
26.36 K	52.53 J/K/mol
27.42 K	56.44 J/K/mol
27.74 K	55.76 J/K/mol
28.99 K	60 J/K/mol
29.16 K	59.25 J/K/mol
30.59 K	63.64 J/K/mol
30.76 K	63.06 J/K/mol
32.36 K	67.48 J/K/mol
32.52 K	67.01 J/K/mol
34.28 K	71.38 J/K/mol
34.44 K	71.11 J/K/mol
36.21 K	75.09 J/K/mol
36.36 K	74.97 J/K/mol
38.14 K	78.66 J/K/mol
38.29 K	78.65 J/K/mol
40.07 K	82.09 J/K/mol
40.21 K	82.2 J/K/mol
42.09 K	85.6 J/K/mol
42.23 K	85.83 J/K/mol
44.21 K	89.2 J/K/mol
44.36 K	89.57 J/K/mol
46.33 K	92.75 J/K/mol
46.49 K	93.18 J/K/mol
48.45 K	96.18 J/K/mol
48.62 K	96.7 J/K/mol
50.58 K	99.47 J/K/mol
50.75 K	100 J/K/mol
52.71 K	102.6 J/K/mol
